First: CC1=C(C(=O)O)CCC(C)(C)C1
Second: CNc1cc(C)ccc1C(C)=O
The melting point of the first is higher: 108 to 110 °C for the first, 47 °C for the second.

First: COC(=O)c1cc(OC)cc(-c2ccc(N(C)C)cc2)n1
Second: COC(=O)c1ccccc1-c1noc(-c2ccc(OC)cc2)n1
The melting point of the first is higher: 157 to 158 °C for the first, 73 to 75 °C for the second.

`Nc1ccc2ncc(C(=O)NCc3ccc(Cl)cc3)c(O)c2c1` and `O=C(O)CCc1cc(F)c2ncc(C(=O)NCc3ccc(Cl)cc3)c(O)c2c1` cannot be ordered by melting point: greater than 225 °C for the first, 284 to 286 °C for the second.

First: O=C(NCc1ccc(F)c(F)c1)c1ccnc(N2CCN(Cc3ccccn3)C2=O)c1
Second: Cc1cc2cc(CN3CCCC3)cnc2cc1NC(=O)c1ccc(-c2ccc(F)c(F)c2)cc1
The melting point of the first is lower: 143 to 145 °C for the first, 220 to 223 °C for the second.

First: O=C(O)c1ccc(F)c(F)c1Nc1ccc(I)cc1F
Second: O=C(O)c1cccc(NCc2cccc(Cl)c2)c1C(=O)O
The melting point of the first is lower: 199 to 201 °C for the first, 207 to 209 °C for the second.

Compared with `O[C@@H]1CNC[C@H]1Oc1ccccc1` (relative stereo), `CC(=O)OC1CCC(c2ccccc2)CC1` (stereo not drawn) is lower in melting point: 120 to 122 °C for the first, 43 to 45 °C for the second.

Compared with `CCCC(=O)c1cc2c(OCC)cc(C(=O)OCC)nc2cc1C`, `CCN(CC)c1nc(N)c2cc(OC)c(OC)cc2n1` is higher in melting point: 123 to 124 °C for the first, 167 to 169 °C for the second.

First: CCCNC(=O)Nc1cc(-c2c(-c3ccc(F)cc3)nc3cccnn23)ccn1
Second: Cc1cccc(-c2nc3ccc(Cl)nn3c2-c2ccnc(Nc3ccccc3C)c2)c1
The melting point of the first is higher: 219 to 220 °C for the first, 191 to 192 °C for the second.

Compared with `CC(C)(C)C(O)(CCCOc1ccccc1)Cn1cncn1` (stereo not drawn), `CCCCCCCC(=O)OCCc1c(-c2ccccc2)nc(N)n2ncnc12` is lower in melting point: 106 °C for the first, 89 to 91 °C for the second.

First: COc1ccc(CNC2(Cc3ccccc3)CCC(=O)CC2)cc1
Second: Nc1cc(OCc2ccccc2)ccc1C=C(Br)Br
The melting point of the first is higher: 122 to 124 °C for the first, 93 to 94 °C for the second.

First: CC(=O)OCCCC1Oc2c(C)c(C)c(OC(C)=O)c(C)c2S1 (stereo not drawn)
Second: COC(=O)C1=C(CF)NC(C)=C(C(=O)OC(C)C)C1c1cccc(Cl)c1C (stereo not drawn)
The melting point of the first is higher: 78 to 79 °C for the first, 73 to 75 °C for the second.

First: O=C1Nc2ccccc2C1C1CCN(CC(O)C2COc3ccccc3O2)CC1 (stereo not drawn)
Second: CCOc1ccccc1CNC(=O)[C@@H]1CCCN(c2cccc3c2C(=O)N(Cc2ccncc2)C3=O)C1
The melting point of the first is lower: 115 to 120 °C for the first, 194 to 195 °C for the second.

First: CN(C)N=Nc1cc(-c2ccccc2)sc1C(=O)O
Second: CCN(CC)Cc1nn2cc(-c3ccccc3)nc2s1
The melting point of the first is higher: 162 to 166 °C for the first, 138 °C for the second.

Compared with `Cc1c(C)c2c(c(C)c1Nc1ccccc1)CC(C)(C)O2`, `CC(C)Cc1ccc(C2(c3ccccc3)OC(=O)C(O)=C2O)cc1` (stereo not drawn) is lower in melting point: 148 to 150 °C for the first, 138 to 139 °C for the second.

Compared with `Cc1cccc(-c2n[nH]cc2-c2ccc(F)c(-c3cc[nH]n3)c2)n1`, `Fc1ccccc1C1=NCc2cnc(-c3ccccc3)n2-c2ccc(Cl)cc21` is higher in melting point: 105 to 108 °C for the first, 241 to 243 °C for the second.

First: Cn1cc(-c2cccc(N3CCc4c(sc5c4CCCC5)C3=O)c2CO)nc(Nc2cnn(CCO)c2)c1=O
Second: N#Cc1c(N2CCN(C(=O)c3ccc4c(c3)OCO4)CC2)c2ccccc2n(Cc2ccc(F)cc2)c1=O
The melting point of the first is higher: 198 to 199 °C for the first, 140 to 160 °C for the second.

First: CCc1cccc(Cl)c1C(=O)N[C@@H](Cc1ccc(-c2c(C)n(C)c(=O)n(C)c2=O)cc1)C(=O)O
Second: CCc1nc2cc(S(C)(=O)=O)c(Cl)cc2n1-c1ccc(CCNC(=O)NS(=O)(=O)c2ccc(C)cc2)cc1
The melting point of the first is higher: 187 to 190 °C for the first, 105 to 118 °C for the second.

First: CC(C)(C)C1CCc2nc(N)nc(N)c2C1 (stereo not drawn)
Second: CNc1nc(N)ncc1-c1ccc(Cl)cc1Cl
The melting point of the first is higher: greater than 250 °C for the first, 189 to 190 °C for the second.

First: COc1cc(Nc2nccc(-c3cccc(NC(=O)c4cc(C)on4)c3)n2)cc(OC)c1OC
Second: COc1ccc(CN(C)CCOc2ccc(NC(=O)c3cccc4c(=O)c5cccc(OC)c5[nH]c34)cc2)cc1OC
The melting point of the first is lower: 173 to 175 °C for the first, 184 °C for the second.

First: COc1ccc(-c2nc(NC(=N)N)sc2-c2ccc(OC)cc2)cc1
Second: COC(=O)CCc1nc(CCc2ccc(C(=O)OC)cc2)ccc1OCCCC/C=C/c1ccc(OC)cc1
The melting point of the first is higher: 121 to 130 °C for the first, 59 to 61 °C for the second.

First: CN(C)C(=O)Nc1nsnc1-c1c(Cl)cccc1Cl
Second: COC(=O)c1cnc(Cl)c2ccccc12
The melting point of the first is higher: 100 to 103 °C for the first, 53 to 55 °C for the second.

First: COc1cc2cc(/C=N\O)sc2cc1OC
Second: COc1cc2cc(C(=O)OC(C)(C)C)c(N)cc2cc1OCc1ccccc1
The melting point of the first is higher: 211 to 215 °C for the first, 179 to 180 °C for the second.

Compared with `C#Cc1cccc(N2C(=O)c3ccc([N+](=O)[O-])cc3C2=O)c1`, `N#CC(=Cc1ccc2[nH]ccc2c1)S(=O)(=O)c1ccc([N+](=O)[O-])cc1` is lower in melting point: 257 to 259 °C for the first, 219 to 221 °C for the second.

Compared with `CC(C)(C)OC(=O)N1CC(O)C(SCc2ccccc2)C1` (stereo not drawn), `CC(C)[C@H](NC(=O)OCc1ccccc1)C(=O)NCC(=O)OC(C)(C)C` is higher in melting point: 97 to 98 °C for the first, 139 to 141 °C for the second.

First: CCOC(=O)C1=C(N2CCCCC2)N=C(C)C(C(=O)OCC)C1c1ccccc1C#N (stereo not drawn)
Second: CCn1c(C)nc(N2CCc3ccccc3CC2)c(C#N)c1=O
The melting point of the first is lower: 103 °C for the first, 154 to 158 °C for the second.

First: COC1(OC)CCC2=C3C(c4ccc(C5OCC(C)(C)CO5)cc4)CC4(C)C(=O)CCC4C3CCC2(O)C1 (stereo not drawn)
Second: COC(=O)N1C[C@@H](C#N)[C@H](c2ccc(OC)c(OC3CCCC3)c2)C1 (relative stereo)
The melting point of the first is higher: 194 to 202 °C for the first, 101 to 104 °C for the second.

Compared with `OCC1CCC(CBr)CC1` (stereo not drawn), `O=C(CC1CC1)N[C@H]1CC[C@H](CCN2CCC(c3cccc4c3CCO4)CC2)CC1` is higher in melting point: 146 to 149 °C for the first, 189 °C for the second.

Compared with `O=C(Oc1ccc(Cl)cn1)c1cc2ccccc2sc1=O`, `O=C(O)c1ccc(-c2cnc3c(c2)N(Cc2ccccc2)C(=O)CN3)cc1` is higher in melting point: 174 to 176 °C for the first, greater than 200 °C for the second.

Going from `O=C(O)CCc1cc2nc(Cl)ccc2n1S(=O)(=O)c1cccc2ccccc12` to `COC(=O)CCCc1cc2nc(Cl)ccc2n1S(=O)(=O)c1ccc(Cl)cc1`, the melting point rises from 93 °C to 108 °C.

Compared with `C[C@@H]1CCCN1CCCN1CCN(CCN2CCCCC2)C1=C(C#N)C#N`, `CC(C)c1cccc(C(C)C)c1NC(=O)NCCN1CCN(CCSc2nc3ccccc3o2)CC1` is higher in melting point: 70 to 71 °C for the first, 152 to 153 °C for the second.

Compared with `COC(CNC(=O)C(CS)CC(C)C)OC` (stereo not drawn), `CC(C)CC(NC(=O)C(Cc1c[nH]cn1)NC(=O)C(CC(=O)N1CCOCC1)Cc1cccc2ccccc12)C(O)C(=O)OC(C)C` (mixture of isomers) is higher in melting point: 34 to 37 °C for the first, 95 to 98 °C for the second.

First: CC(C)(C)C(=O)NCc1cc(-c2ccc(Cl)c(Cl)c2)n(Cc2ccc(Cl)c(Cl)c2)n1
Second: CSc1ccc(CSc2nnc(-c3ccc4ncsc4c3)o2)cc1C(F)(F)F
The melting point of the first is lower: 56.5 °C for the first, 122 to 123 °C for the second.

First: CNCCc1ccc(CCC(=O)O)cc1
Second: CCCc1nc(C)nc(O)c1Cc1ccc([N+](=O)[O-])cc1
The melting point of the first is higher: 211 to 212 °C for the first, 200 °C for the second.

First: COn1c(-c2ccccc2)nc2ccc(Cn3ccnc3)cc21
Second: Cc1nc(N2CCN(Cc3ccccc3)C2=O)sc1C(N)=O
The melting point of the first is lower: 142 °C for the first, 217 to 218 °C for the second.

First: CCC(CC)N1CC2=C3C(=NN(c4ccc(C(C)C)cc4Br)C(=O)N3CC2)C(C)=N1
Second: CCOC(=O)c1ncn2c1CN(C)C(=S)c1cc(F)ccc1-2
The melting point of the first is lower: 149 to 150 °C for the first, 157 to 159 °C for the second.

First: O=C(O)c1cc(Sc2nc3cc(Cl)ccc3[nH]2)c2[nH]c(=O)[nH]c2c1
Second: CNC(=O)CC1CN=C(c2cc3cc(Oc4ccc(S(C)(=O)=O)cn4)cc(OC)c3[nH]2)S1 (stereo not drawn)
The melting point of the first is higher: 326 to 330 °C for the first, 207 to 209 °C for the second.

First: CCOC(=O)C=Cc1ccc(NC(C)=O)cc1
Second: O=C(/C=C/c1cccc(NC(=O)CCCc2ccccc2)c1)NO
The melting point of the first is lower: 126 to 127 °C for the first, 152 to 153 °C for the second.

Compared with `COc1nc(Oc2ccccc2C(=O)O)nc(N(C)C)n1`, `COc1cc(C)nc(NC(=O)NS(=O)(=O)c2ccccc2C2=CCCC2)n1` is higher in melting point: 148 to 149 °C for the first, 235 to 236 °C for the second.

Compared with `COc1nc2ccnn2c2ncccc12`, `CCOC(=O)c1cnn2c(-c3ccccc3C(F)(F)F)ccnc12` is lower in melting point: 154 °C for the first, 148 to 149 °C for the second.

First: O=C(CCl)Nc1ccc2c(c1NC(=O)c1ccccc1C(F)(F)F)C(=O)c1ccccc1C2=O
Second: Cc1cccc(C(=O)Nc2ccc3c(c2)CCC(NCc2ccccn2)CC3)c1-c1ccc(C(F)(F)F)cc1 (stereo not drawn)
The melting point of the first is higher: 248 to 250 °C for the first, 104 to 106 °C for the second.

Compared with `CN1C(=O)CC(c2ccccc2)C1C(O)c1ccc(C(=O)Nc2ccccc2)s1` (stereo not drawn), `CN1C(=O)C(C)(Cc2ccccc2)N(C)C(=O)C1C1NC(=O)c2cccc(F)c21` (stereo not drawn) is lower in melting point: 223 to 227 °C for the first, 183 to 185 °C for the second.

First: CN1C(=O)CCC2(C)c3ccc(-c4cccs4)cc3CCC12 (stereo not drawn)
Second: CN1CCN(c2ccc(-c3cnc4c(c3)N(Cc3cc(Cl)ccc3C(F)(F)F)CCN4)cn2)CC1
The melting point of the first is lower: 193 to 195 °C for the first, 226 to 227 °C for the second.

Compared with `CCCCCC(C=CC1C(O[Si](C)(C)C(C)(C)C)CC2Cc3c(cccc3OC(=O)c3ccccc3)CC21)O[Si](C)(C)C(C)(C)C` (stereo not drawn), `CC(C)(C)n1cc(-c2ccc(N(C=O)c3ccccc3)cc2)c2cncnc21` is higher in melting point: 140 to 141 °C for the first, 163 to 164 °C for the second.

Compared with `CCOC(=O)Cc1c(C)[nH]c2cc(F)c(OC)c(F)c12`, `CCOC(=O)C1(NC=O)Cc2ccccc2NC1=O` (stereo not drawn) is higher in melting point: 92.1 to 92.7 °C for the first, 187 to 190 °C for the second.

Compared with `O=C(O)c1cnn(-c2cccc(C(F)(F)F)c2)c1`, `CCc1cccc(Cn2[nH]c(N)cc2=O)c1` is lower in melting point: 145 to 148 °C for the first, 73 °C for the second.

First: C[C@@H]1O[C@](C#CC2CC2)(C(F)(F)F)c2c(ccc3c2OCO3)NC1=O (relative stereo)
Second: CCn1c(=O)c2c(-c3noc(C4CC4)n3)ncn2c2cccnc21
The melting point of the first is lower: 252 to 253 °C for the first, 254 to 255 °C for the second.

Compared with `CC(=Nc1ccccc1)NC(=S)NCc1cccnc1`, `CC(C)(C)OC(=O)NC1CCCCCC=CC2CC2(C(=O)NS(=O)(=O)C2CC2)NC(=O)C2CC(OC(=O)c3ccc4nccnc4c3)CN2C1=O` (stereo not drawn) is higher in melting point: 143 to 144 °C for the first, 158 to 160 °C for the second.

First: COc1ccc(C(O)=C(C#N)C(=O)C(C)(C)C)c([N+](=O)[O-])c1
Second: C/C(=C/CO)c1cc2c(cc1O)C(C)(C)CCC2(C)C
The melting point of the first is lower: 85 to 88 °C for the first, 144 to 145 °C for the second.

First: COCC(=O)c1cnc(C2OCCO2)s1
Second: O=C(O)CCCCCCCCCCc1ccco1
The melting point of the first is higher: 65 to 66 °C for the first, 40 to 41 °C for the second.
